Results taken from ChEMBL document CHEMBL1136199, “2,6,8,9-tetrasubstituted purines as new CDK1 inhibitors” (Bioorg Med Chem Lett, 2003).

Assays:
MCF7 = test: cells; format: functional, cell-based; conditions: Homo sapiens
Description: Cytotoxic property against MCF-7 cell line was determined

K562 = test: cells; format: functional, cell-based; conditions: Homo sapiens
Description: Cytotoxic property against K562 cell line was determined

## CCC(CO)Nc1nc(NCc2ccccc2)c2nc(Cl)n(C(C)C)c2n1 (stereo not given)
MCF7
  IC50: 54 µM
K562
  IC50: 91 µM

## CCC(CO)Nc1nc(NCc2ccccc2)c2nc(N)n(C(C)C)c2n1 (stereo not given)
MCF7
  IC50: 60 µM
K562
  IC50: 80 µM

## CCC(CO)Nc1nc(NCc2ccccc2)c2nc(C)n(C(C)C)c2n1 (stereo not given)
MCF7
  IC50: 94 µM
K562
  IC50: 58 µM

## CCC(CO)Nc1nc(NCc2ccccc2)c2nc(O)n(C(C)C)c2n1 (stereo not given)
K562
  IC50: 74 µM

## CCC(CO)Nc1nc(NCc2cccc(O)c2)c2nc(Cl)n(C(C)C)c2n1 (stereo not given)
MCF7
  IC50: 27 µM
K562
  IC50: 27 µM

## CC(C)n1cnc2c(Nc3cccc(Cl)c3)nc(NC3CCC(N)CC3)nc21 (stereo not given)
MCF7
  IC50: 1.1 µM
K562
  IC50: 1.4 µM

## CC(C)C(CO)Nc1nc(Nc2cccc(Cl)c2)c2nc(Cl)n(C(C)C)c2n1 (stereo not given)
MCF7
  IC50: 45 µM
K562
  IC50: 21 µM

## Cc1nc2c(Nc3cccc(Cl)c3)nc(NC3CCC(N)CC3)nc2n1C(C)C (stereo not given)
MCF7
  IC50: 8 µM
K562
  IC50: 3.5 µM

## CCCOc1nc2c(NCc3ccccc3)nc(NC(CC)CO)nc2n1C(C)C (stereo not given)
MCF7
  IC50: 50 µM
K562
  IC50: 20 µM

## CCC(CO)Nc1nc(NCc2ccccc2)c2nc(NCCCO)n(C(C)C)c2n1 (stereo not given)
MCF7
  IC50: 40 µM
K562
  IC50: 30 µM

## CCC(CO)Nc1nc(NCc2ccccc2)c2nc(Br)n(C(C)C)c2n1 (stereo not given)
MCF7
  IC50: 53 µM
K562
  IC50: 27 µM

## CCC(CO)Nc1nc(NCc2ccccc2)c2nc([N+](=O)[O-])n(C(C)C)c2n1 (stereo not given)
MCF7
  IC50: 117 µM
K562
  IC50: 117 µM

## CCC(CO)Nc1nc(NCc2ccccc2)c2nc(S)n(C(C)C)c2n1 (stereo not given)
MCF7
  IC50: 55 µM
K562
  IC50: 154 µM
